Measurements taken from patent publication US20250144067A1, “PERSONALIZED STARVATION THERAPY FOR CANCER” (Faeth Therapeutics, Inc., priority 2021, published 2025).
Counter-ions that a name gives are not always drawn. Peptide text beside a SMILES is read from it.

Assays:
[1] = system: NCI-H292 lung cancer cells; assay: FDA drug screening, complete media vs cholesterol-free media without statin (TABLE 1); format: cell-based, human
[2] = system: NCI-H292 lung cancer cells; assay: FDA drug screening, complete media vs cholesterol-free media with simvastatin (TABLE 2); format: cell-based, human; settings: for Cholesterol-free media + simvastatin (0.04 μM) / Complete Media: NCI-H292 cells
[3] = NCI-H292 cells, cholesterol-free media without statin, FDA drug library screen
[4] = NCI-H292 cells, complete media, FDA drug library screen
[5] = complete vs cholesterol-free media, >0 enhanced anti-cancer activity, about 0 neutral, <0 antagonist
[6] = FDA drug library screen, cholesterol-free media with simvastatin 0.04 μM
[7] = FDA drug library screen, complete media
[8] = complete media vs cholesterol-free media + simvastatin (0.04 μM), >0 enhanced anti-cancer activity, about 0 neutral, <0 antagonist
[9] = Complete minus Cholesterol-free, greater than 0 enhanced anti-cancer activity, about 0 neutral, below 0 antagonist
[10] = NCI-H292 cells, FDA drug library screen, cholesterol-free media without statin
[11] = NCI-H292 cells, FDA drug library screen, complete media
[12] = cholesterol-free media with simvastatin 0.04 μM, cell growth value in FDA drug screen
[13] = complete media, cell growth value in FDA drug screen
[14] = complete media minus cholesterol-free media + simvastatin, >0 enhanced anti-cancer activity, about 0 neutral, <0 antagonist
[15] = NCI-H292 cells, cholesterol-free media without statin
[16] = complete vs cholesterol-free media, greater than 0 enhanced anti-cancer activity, about 0 neutral, below 0 antagonists
[17] = cholesterol-free media with simvastatin 0.04 μM, FDA drug library screen (TABLE 2)
[18] = complete media, FDA drug library screen (TABLE 2)
[19] = complete media minus cholesterol-free media + simvastatin (0.04 μM), >0 enhanced anti-cancer activity, about 0 neutral, <0 antagonist
[20] = FDA library drug in cholesterol-free media with simvastatin 0.04 μM
[21] = FDA library drug in complete media
[22] = Complete minus Cholesterol-free, >0 enhanced anti-cancer activity, about 0 neutral, <0 antagonist
[23] = Complete minus Cholesterol-free, greater than 0 enhanced anti-cancer activity, about 0 neutral, below 0 antagonists
[24] = NCI-H292 cells in cholesterol-free media without statin
[25] = NCI-H292 cells in complete media
[26] = drug in cholesterol-free media with simvastatin 0.04 μM

SMILES	Cholesterol-free [1, 3]	Complete [1, 4]	Cholesterol-free media + simvastatin (0.04 μM) [2, 6]	Complete Media [2, 7]	Difference [2, 8]	Cholesterol-free [1, 15]	Complete ([1]; NCI-H292 cells, complete media)	Difference [1, 22]	further results
O=C(O)CSc1nnc(Br)n1-c1ccc(C2CC2)c2ccccc12 [Lesinurad (sodium)]	0.8857	1.263	0.8519	0.7365	−0.12				Difference [1, 5]: 0.38
O=C(O)CSc1nnc(Br)n1-c1ccc(C2CC2)c2ccccc12 [Lesinurad]									Difference [1, 9]: −0.12; Cholesterol-free [1, 10]: 1.092; Complete [1, 11]: 0.9716; Cholesterol-free media + simvastatin (0.04 μM) [2, 12]: 0.9083; Complete Media [2, 13]: 0.9388; Difference [2, 14]: 0.03
COc1cccc(N2CCN(C3=Nc4c(F)cccc4[C@H](CC(=O)O)N3c3cc(C(F)(F)F)ccc3OC)CC2)c1 [Letermovir]						1.5	1.08		Difference [1, 16]: −0.42; Cholesterol-free media + simvastatin (0.04 μM) [2, 17]: 1.527; Complete Media [2, 18]: 1.457; Difference [2, 19]: −0.07
N#Cc1ccc(C(c2ccc(C#N)cc2)n2cncn2)cc1 [Letrozole]					−0.46	1.334	1.012		Difference [1, 16]: −0.32; Cholesterol-free media + simvastatin (0.04 μM) [2, 20]: 1.67; Complete Media [2, 21]: 1.21
c1ccc([C@H]2CN3CCSC3=N2)cc1 [Levamisole (hydrochloride)]	1.001	1.665			−0.40				Difference [1, 5]: 0.66; Cholesterol-free media + simvastatin (0.04 μM) [2, 20]: 1.301; Complete Media [2, 21]: 0.9046
CC[C@@H](C(N)=O)N1CCCC1=O [Levetiracetam]			1.002	0.917	−0.09	1.098	0.8825	−0.22	
CC(C)NC[C@H](O)COc1ccc(CCOCC2CC2)cc1 [Levobetaxolol (hydrochloride)]									Difference [1, 23]: −0.54; Cholesterol-free [1, 24]: 1.517; Complete [1, 25]: 0.977; Cholesterol-free media + simvastatin (0.04 μM) [2, 17]: 1.004; Complete Media [2, 18]: 0.9581; Difference [2, 19]: −0.05
CC(C)(C)NC[C@H](O)COc1cccc2c1CCCC2=O [Levobunolol (hydrochloride)]	0.4904	1.134							Difference [1, 5]: 0.64; Cholesterol-free media + simvastatin (0.04 μM) [2, 17]: 0.9864; Complete Media [2, 18]: 0.921; Difference [2, 19]: −0.07
CCCCN1CCCC[C@H]1C(=O)Nc1c(C)cccc1C [Levobupivacaine (hydrochloride)]						1.298	0.9683		Difference [1, 16]: −0.33; Cholesterol-free media + simvastatin (0.04 μM) [2, 12]: 0.871; Complete Media [2, 13]: 0.9154; Difference [2, 14]: 0.04
CCC(=O)O[C@H](CC(=O)O)C[N+](C)(C)C [Levocarnitine propionate (hydrochloride)]						1.256	0.9514	−0.30	Cholesterol-free media + simvastatin (0.04 μM) [2, 17]: 1.106; Complete Media [2, 18]: 1.114; Difference [2, 19]: 0.01
O=C(O)COCCN1CCN([C@H](c2ccccc2)c2ccc(Cl)cc2)CC1 [Levocetirizine (dihydrochloride)]	0.8691	0.8901			−0.26			0.02	Cholesterol-free media + simvastatin (0.04 μM) [2, 26]: 1.115; Complete Media ([2]; drug in complete media): 0.8515
OC[C@@H](O)CN1CCN(c2ccccc2)CC1 [Levodropropizine]			1.096	0.9475	−0.15				Difference [1, 9]: −0.15; Cholesterol-free [1, 10]: 0.946; Complete [1, 11]: 0.7999
C[C@H]1COc2c(N3CCN(C)CC3)c(F)cc3c(=O)c(C(=O)O)cn1c23 [Levofloxacin (hydrate)]			1.078	0.9583	−0.12				Difference [1, 23]: −0.48; Cholesterol-free [1, 24]: 1.308; Complete [1, 25]: 0.8243
C[C@H]1COc2c(N3CCN(C)CC3)c(F)cc3c(=O)c(C(=O)O)cn1c23 [Levofloxacin]					−0.19	1.162	0.933	−0.23	Cholesterol-free media + simvastatin (0.04 μM) [2, 26]: 1.136; Complete Media ([2]; drug in complete media): 0.944
Nc1nc(=O)c2c([nH]1)NC[C@H](CNc1ccc(C(=O)N[C@@H](CCC(=O)[O-])C(=O)[O-])cc1)N2C=O.[Ca+2] [Levoleucovorin (Calcium)]	1.535	1.487	1.534	1.758					Difference ([1]; Complete minus Cholesterol-free, […]): −0.05; Difference ([2]; complete media minus cholesterol-free media + simvastatin, […]): 0.22
CN1c2c(nc(N)[nH]c2=O)NC[C@@H]1CNc1ccc(C(=O)N[C@@H](CCC(=O)O)C(=O)O)cc1 [Levomefolic acid]						1.808	1.368		Difference [1, 16]: −0.44; Cholesterol-free media + simvastatin (0.04 μM) [2, 17]: 0.9044; Complete Media [2, 18]: 0.8568; Difference [2, 19]: −0.05
COc1ccc2c(c1)N(C[C@H](C)CN(C)C)c1ccccc1S2 [Levomepromazine]	0.8962	0.9041	0.8554	1.084				0.01	Difference [2, 14]: 0.23
C#C[C@]1(O)CC[C@H]2[C@@H]3CCC4=CC(=O)CC[C@@H]4[C@H]3CC[C@@]21CC [Levonorgestrel]					−0.33	1.107	0.8992	−0.21	Cholesterol-free media + simvastatin (0.04 μM) [2, 20]: 1.877; Complete Media [2, 21]: 1.543
C[C@@H]1CC(=O)NN=C1c1ccc(NN=C(C#N)C#N)cc1 [Levosimendan]	1.195	1.131	1.165	1.044	−0.12			−0.06	
CCN1CCC[C@H]1CNC(=O)c1cc(S(N)(=O)=O)ccc1OC [Levosulpiride]			0.9156	1.092					Difference [1, 23]: −0.54; Cholesterol-free [1, 24]: 1.287; Complete [1, 25]: 0.7498; Difference [2, 14]: 0.18
CCN(CC)CC(=O)Nc1c(C)cccc1C [Lidocaine (hydrochloride)]						1.21	0.9883	−0.22	Cholesterol-free media + simvastatin (0.04 μM) [2, 17]: 0.8862; Complete Media [2, 18]: 0.8646; Difference [2, 19]: −0.02
CCN(CC)CC(=O)Nc1c(C)cccc1C [Lidocaine]					−0.34				Difference [1, 23]: −0.78; Cholesterol-free [1, 24]: 1.775; Complete [1, 25]: 0.9935; Cholesterol-free media + simvastatin (0.04 μM) [2, 20]: 1.433; Complete Media [2, 21]: 1.088
CS(=O)(=O)c1cccc(C[C@H](NC(=O)c2c(Cl)cc3c(c2Cl)CCN(C(=O)c2ccc4ccoc4c2)C3)C(=O)O)c1 [Lifitegrast]			1.009	0.8652	−0.14				Difference [1, 9]: −0.15; Cholesterol-free [1, 10]: 1.11; Complete [1, 11]: 0.9552
Cc1nc(C)c(C)nc1C [Ligustrazine (hydrochloride)]	1.047	0.9829			−0.21			−0.06	Cholesterol-free media + simvastatin (0.04 μM) [2, 26]: 1.229; Complete Media ([2]; drug in complete media): 1.02
CCCC[C@H](C)C[C@H](O)/C=C/[C@H]1[C@H](O)CC(=O)[C@@H]1CCCC/C=C/C(=O)O [Limaprost]					−0.24	1.4	0.949		Difference [1, 16]: −0.45; Cholesterol-free media + simvastatin (0.04 μM) [2, 26]: 1.214; Complete Media ([2]; drug in complete media): 0.9724
C[C@@H]1NC(=O)[C@@H]2CCCN2C(=O)[C@H](CC(N)=O)NC(=O)[C@@H]2CSSC[C@H](N)C(=O)N[C@H]3CSSC[C@H](NC1=O)C(=O)N[C@@H]([C@@H](C)O)C(=O)NCC(=O)N[C@H](C(=O)N[C@@H](Cc1ccc(O)cc1)C(=O)O)CSSC[C@H](NC(=O)[C@H](Cc1ccc(O)cc1)NC(=O)[C@H](CCC(=O)O)NC3=O)C(=O)N2 [Linaclotide] (HELM PEPTIDE1{C.C.E.Y.C.C.N.P.A.C.T.G.C.Y}$PEPTIDE1,PEPTIDE1,1:R3-6:R3|PEPTIDE1,PEPTIDE1,2:R3-10:R3|PEPTIDE1,PEPTIDE1,5:R3-13:R3$$$V2.0)	1.326	1.765	0.9562	0.8554					Difference ([1]; complete vs cholesterol-free media, […]): 0.44; Difference ([2]; complete media vs cholesterol-free media + simvastatin (0.04 μM), […]): −0.10
CC#CCn1c(N2CCC[C@@H](N)C2)nc2c1c(=O)n(Cc1nc(C)c3ccccc3n1)c(=O)n2C [Linagliptin]						1.072	0.8404	−0.23	Cholesterol-free media + simvastatin (0.04 μM) [2, 17]: 1.095; Complete Media [2, 18]: 1.067; Difference [2, 19]: −0.03
